For experiment [1], the target named is Glyceraldehyde-3-phosphate dehydrogenase (Homo sapiens, UniProt P04406).
For experiment [2], the target named is T1, Bcl-2-related protein A1 (Mus musculus, UniProt Q07440).
T1 sequence (Q07440 whole entry): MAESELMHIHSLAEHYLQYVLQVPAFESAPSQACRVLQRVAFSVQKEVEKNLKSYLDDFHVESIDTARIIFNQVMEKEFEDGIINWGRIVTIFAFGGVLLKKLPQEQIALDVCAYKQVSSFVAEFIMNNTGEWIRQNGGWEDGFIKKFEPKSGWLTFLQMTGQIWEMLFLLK
The experiment in a line: Bfl-1 binding inhibitors, SAR follow-up, biochemical, fluorescence polarization (AID 1070).

Experiment [3] has as its target T1, Bcl-2-related protein A1. The experiment in a line: small-molecule antagonists of Bfl-1/BH3 interaction – biochemical, TR-FRET, mouse Bfl-1, confirmation (AID 621).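 Note: TR-FRET binding of GST-Bfl-1 to FITC-labelled Bid peptide via terbium antibody.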
A short description of experiment [4]: potency of ADAM10 substrate cleavage blockers – biochemical, QFRET, dose response (AID 743254).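 Note: ADAM10 enzyme with the DM2 quenched FRET peptide as substrate; EDANS fluorescence gain as the protease cuts the substrate; inhibitor potency against ADAM10 proteolytic activity.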
The target of experiment [5] is Disintegrin and metalloproteinase domain-containing protein 17 (Homo sapiens, UniProt P78536). The experiment in a line: inhibition of ADAM17 substrate cleavage – biochemical, quenched FRET substrate, counter-screen for ADAM10 exosite inhibitor project, dose response (AID 743253).
Chain of Disintegrin and metalloproteinase domain-containing protein 17 (P78536 whole entry, the tested form may be a part): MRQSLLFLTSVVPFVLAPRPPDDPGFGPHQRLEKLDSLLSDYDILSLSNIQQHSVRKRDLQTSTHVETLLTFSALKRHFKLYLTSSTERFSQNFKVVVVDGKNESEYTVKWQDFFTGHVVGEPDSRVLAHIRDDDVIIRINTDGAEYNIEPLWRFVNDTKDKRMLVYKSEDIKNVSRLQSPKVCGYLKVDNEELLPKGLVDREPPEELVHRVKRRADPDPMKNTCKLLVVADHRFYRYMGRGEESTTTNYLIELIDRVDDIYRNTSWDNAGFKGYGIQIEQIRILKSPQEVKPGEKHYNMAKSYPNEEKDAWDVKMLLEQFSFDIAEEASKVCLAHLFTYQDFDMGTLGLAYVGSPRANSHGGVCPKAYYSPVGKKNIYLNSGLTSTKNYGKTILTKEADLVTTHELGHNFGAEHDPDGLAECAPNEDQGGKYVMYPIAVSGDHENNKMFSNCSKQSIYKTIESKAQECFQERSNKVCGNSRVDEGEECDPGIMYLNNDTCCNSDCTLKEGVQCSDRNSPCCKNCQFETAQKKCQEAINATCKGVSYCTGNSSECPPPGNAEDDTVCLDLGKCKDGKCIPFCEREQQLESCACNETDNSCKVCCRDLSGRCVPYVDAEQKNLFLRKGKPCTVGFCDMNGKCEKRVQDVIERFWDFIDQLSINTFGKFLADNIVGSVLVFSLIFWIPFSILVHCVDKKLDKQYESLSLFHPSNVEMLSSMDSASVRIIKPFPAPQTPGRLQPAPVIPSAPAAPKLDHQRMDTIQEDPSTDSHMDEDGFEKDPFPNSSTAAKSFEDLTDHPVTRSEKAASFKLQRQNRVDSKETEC
A further experiment addresses Prothrombin (Homo sapiens, UniProt P00734). The experiment in a line: Thrombin 1536 HTS Dose Response Confirmation. [Related pubchem assays: 1046 (Thrombin 1536 HTS; hits were confirmed in this assay)]. It counts as functional.
Experiment [6] can be described thus: HIV-1 Vif–A3G interaction blockers – biochemical, TR-FRET, GST-Vif 1-94, biotin-A3G peptide, dose response retest, primary screen (AID 1117319).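 Note: TR-FRET signal of purified GST-Vif binding a biotinylated A3G peptide; inhibitors lower the FRET signal by blocking Vif and A3G binding.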 It counts as functional.
Experiment [7] has as its target E3 ubiquitin-protein ligase Mdm2 (Homo sapiens, UniProt Q00987). The experiment in a line: MDM2-luc reporter signal enhancers, multi-concentration potency testing, MDM2 ubiquitin-protein ligase inhibitor program, whole-cell format, luminescence detection, 384-well microplate (AID 1394).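 Note: MDM2 E3 inhibitors raise luminescence so EC50 is for signal enhancement.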 It counts as functional.
The nature of experiment [8]: Luminescence-based cell-based high throughput dose response assay to identify activators of the DAF-12 from the parasite S. stercoralis (ssDAF-12). It counts as functional.
The target of experiment [9] is T2, Oxysterols receptor LXR-beta (Homo sapiens, UniProt P55055).
T2 sequence (P55055 whole entry): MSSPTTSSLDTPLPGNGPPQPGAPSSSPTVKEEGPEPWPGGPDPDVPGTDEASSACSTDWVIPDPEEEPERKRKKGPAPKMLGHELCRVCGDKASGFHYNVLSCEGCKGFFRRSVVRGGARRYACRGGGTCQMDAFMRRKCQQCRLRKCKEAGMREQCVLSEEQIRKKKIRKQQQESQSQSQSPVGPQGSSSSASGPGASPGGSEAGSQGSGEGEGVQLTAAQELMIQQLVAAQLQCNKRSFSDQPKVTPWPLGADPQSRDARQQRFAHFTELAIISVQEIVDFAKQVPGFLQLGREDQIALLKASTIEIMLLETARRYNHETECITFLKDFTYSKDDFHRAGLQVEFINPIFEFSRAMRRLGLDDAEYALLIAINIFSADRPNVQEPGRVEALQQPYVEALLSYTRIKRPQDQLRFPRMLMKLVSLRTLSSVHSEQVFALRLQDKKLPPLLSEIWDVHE
It counts as functional, cell-based.

The next experiment deals with T3, Protein skinhead-1 (Caenorhabditis elegans, UniProt P34707).
T3 sequence (P34707 whole entry): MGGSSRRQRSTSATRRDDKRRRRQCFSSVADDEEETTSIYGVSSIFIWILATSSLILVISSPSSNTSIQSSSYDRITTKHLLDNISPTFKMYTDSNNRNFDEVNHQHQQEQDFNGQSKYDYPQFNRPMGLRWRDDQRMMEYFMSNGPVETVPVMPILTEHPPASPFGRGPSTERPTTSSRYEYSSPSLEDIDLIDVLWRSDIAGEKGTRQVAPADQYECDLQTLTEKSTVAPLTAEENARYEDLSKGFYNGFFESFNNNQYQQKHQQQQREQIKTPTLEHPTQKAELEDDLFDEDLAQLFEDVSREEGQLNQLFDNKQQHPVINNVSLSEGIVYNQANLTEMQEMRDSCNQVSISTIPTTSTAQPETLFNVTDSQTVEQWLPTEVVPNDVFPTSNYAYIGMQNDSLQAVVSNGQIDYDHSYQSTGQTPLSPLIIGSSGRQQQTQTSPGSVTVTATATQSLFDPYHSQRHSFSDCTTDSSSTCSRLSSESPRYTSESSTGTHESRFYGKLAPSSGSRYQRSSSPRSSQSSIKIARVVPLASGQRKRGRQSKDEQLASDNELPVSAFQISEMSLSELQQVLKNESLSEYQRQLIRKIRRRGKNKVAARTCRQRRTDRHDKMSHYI
It counts as functional.

Experiment [10] has as its target T2, Oxysterols receptor LXR-beta. The experiment in a line: LXR agonists, Gal4 luciferase reporter, dose response, counter-screen for ssDAF-12 agonist project, cell-based, luminescence, HEK293, S. stercoralis campaign (AID 720737). Conditions: read-out: IC50 (the source's name). It counts as functional.
The nature of experiment [11]: viability of uninfected HEp-2 cells – cell-based, HTS, cytotoxicity control for RSV inhibitor project, dose response (AID 2410). It counts as functional. To be noted: human respiratory syncytial virus.
For experiment [12], the target named is T4, Tyrosine-protein phosphatase non-receptor type 7 (Homo sapiens, UniProt P35236).
T4 sequence (P35236 whole entry): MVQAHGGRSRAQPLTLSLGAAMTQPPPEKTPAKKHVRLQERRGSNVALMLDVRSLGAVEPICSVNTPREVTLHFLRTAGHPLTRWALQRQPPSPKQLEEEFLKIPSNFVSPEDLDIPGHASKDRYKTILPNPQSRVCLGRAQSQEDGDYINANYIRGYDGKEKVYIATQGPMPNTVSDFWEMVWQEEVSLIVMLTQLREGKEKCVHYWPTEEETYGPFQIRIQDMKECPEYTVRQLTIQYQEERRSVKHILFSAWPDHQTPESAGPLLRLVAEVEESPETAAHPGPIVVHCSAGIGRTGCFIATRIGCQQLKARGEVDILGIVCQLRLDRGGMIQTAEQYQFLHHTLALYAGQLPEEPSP
The experiment in a line: HePTP tyrosine phosphatase activity blockers – biochemical, absorbance, leukemia target, primary screen (AID 521). It counts as functional.

Experiment [13] is described as follows: cytotoxicity toward HT-29 cells – cell-based, CellTiter-Glo luminescence, IC50, dose response (AID 1117330). It counts as functional.
The nature of experiment [14]: cytotoxicity toward HCT116 cells – cell-based, CellTiter-Glo luminescence, IC50, dose response (AID 1117332). It counts as functional. To be noted: HCT-116.
Experiment [15] is described as follows: CellTiter-Glo luminescence survival assay, SW480 colon tumor line, concentration-response curve, half-maximal inhibitory concentration (AID 1117338). It counts as functional.
A short description of experiment [16]: RKO cell viability reduction, dose response, CellTiter-Glo luminescence (AID 1117322). It counts as functional.
Experiment [17] is described as follows: cytotoxicity toward Colo320 cells – cell-based, CellTiter-Glo luminescence, IC50, dose response (AID 1117334). It counts as functional. To be noted: COLO 320.
Experiment [18] in a line: Reduced DLD-1 viability, concentration-response, CellTiter-Glo luminescence (AID 1117352). It counts as functional.
Experiment [19] in a line: SNU-C1 cell viability reduction, dose response, CellTiter-Glo luminescence (AID 1117323). It counts as functional, cell-based.
A short description of experiment [20]: rise of 2N DNA cells, HeLa – IC50, dose response (AID 1117349). It counts as functional, cell-based.
Experiment [21] can be described thus: rise of 4N DNA cells, HeLa – IC50, dose response (AID 1117351). It counts as functional, cell-based.

The source made the active and inactive calls. A value given as a limit tells only on which side of the number the result lay.

Chain of Glyceraldehyde-3-phosphate dehydrogenase (P04406 whole entry): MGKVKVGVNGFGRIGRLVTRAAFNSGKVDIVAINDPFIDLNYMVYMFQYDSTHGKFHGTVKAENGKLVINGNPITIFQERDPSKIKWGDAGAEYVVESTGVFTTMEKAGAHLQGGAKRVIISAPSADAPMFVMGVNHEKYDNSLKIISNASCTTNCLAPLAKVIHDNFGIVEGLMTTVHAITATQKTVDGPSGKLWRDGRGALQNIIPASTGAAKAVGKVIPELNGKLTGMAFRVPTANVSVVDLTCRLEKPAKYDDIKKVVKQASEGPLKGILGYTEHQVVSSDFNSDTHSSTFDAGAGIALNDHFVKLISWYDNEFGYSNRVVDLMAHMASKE
Chain of E3 ubiquitin-protein ligase Mdm2 (Q00987 whole entry): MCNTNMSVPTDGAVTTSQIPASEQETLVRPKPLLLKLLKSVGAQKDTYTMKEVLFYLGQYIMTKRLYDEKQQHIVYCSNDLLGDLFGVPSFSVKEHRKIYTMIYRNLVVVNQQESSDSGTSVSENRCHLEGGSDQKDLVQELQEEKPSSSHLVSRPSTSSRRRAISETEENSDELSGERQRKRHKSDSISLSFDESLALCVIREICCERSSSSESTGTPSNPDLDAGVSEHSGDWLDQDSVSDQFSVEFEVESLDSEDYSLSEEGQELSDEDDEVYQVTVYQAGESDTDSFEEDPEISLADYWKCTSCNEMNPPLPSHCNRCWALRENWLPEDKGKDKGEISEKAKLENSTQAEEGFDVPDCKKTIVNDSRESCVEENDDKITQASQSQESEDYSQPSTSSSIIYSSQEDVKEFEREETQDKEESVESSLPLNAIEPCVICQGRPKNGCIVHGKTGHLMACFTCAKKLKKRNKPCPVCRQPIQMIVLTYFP

On to `CCCCN1CCN(C2=C(Cl)C(=O)N(c3ccc(Cl)c(Cl)c3)C2=O)CC1`, for which the IC50 is > 100 µM (not active) in experiment [1], 10.5 µM (active) at Bcl-2-related protein A1 [2] and 3.28 µM (active) on Bcl-2-related protein A1 [3].
Take `CN(C)c1ccc(C(CNS(=O)(=O)c2ccc(F)cc2)c2c[nH]c3ccccc23)cc1` (configuration not stated): the IC50 in experiment [4] and in experiment [5] was > 69.5 µM (inactive) in each case.
For `CCc1nc(O)c2ccsc2n1`, at Prothrombin, the IC50 is reported as > 50 µM (not active).
As for `O=C(O)c1ccc(S(=O)(=O)c2ccc3c(c2)C(=O)N(Cc2ccco2)C3=O)cc1`, the IC50 in [6] is > 100 µM (active).
Consider `COC(=O)C1=C(C(=O)OC)[C@@H]2N(C)c3ccc(OC)cc3[C@@]23C[C@@H](C(=O)OC)NC3=N1`, for which, in [7], the EC50 is on record as 1.09 µM (not active).
Regarding `Cc1cccc(Nc2nc(-c3cccs3)cs2)n1`, the results for the IC50 (in experiment [8]; at Protein skinhead-1) were > 67.5 µM (inactive) and > 100 µM (inactive), respectively. For the same molecule, the EC50 (in experiment [9]; in [10]; in “cells”) was > 67.5 µM (inactive) each time. Also, the half-maximal cytotoxic concentration (CC50) in experiment [11] was 9.85 µM (active).
Turning to `Cc1ccc(OCC(=O)Nc2ccc(-c3nnc(-c4ccco4)o3)cc2)cc1`, the IC50 in [12] is recorded as > 100 µM (not active).
As for `Cc1c(C)c2c(c(C)c1O)CC[C@@](C)(CCC[C@H](C)CCC[C@H](C)CCCC(C)C)O2` [alpha-TOCHOPHEROL], the IC50 is > 20 µM (inactive) in experiment [13]; > 20 µM (inactive) in [14]; > 20 µM (inactive) in [15]; 2.61 µM (active) in experiment [16]; > 20 µM (inactive) in experiment [17]; > 20 µM (inactive) in experiment [18]. For the same molecule, the IC50 in experiment [19] was > 20 µM (inactive).
Turning to `Cc1ccc(Cl)c(N2C(=O)C(Cl)=C(N3CCOCC3)C2=O)c1Cl`, the IC50 in [1] is > 10 µM (inconclusive); at Bcl-2-related protein A1 [2], > 100 µM (not active); against Bcl-2-related protein A1 [3], > 100 µM (not active).
Regarding `COc1ccc(/C=C/C(=O)c2ccc(OC)cc2OC)cc1`, the IC50 in experiment [20] and in experiment [21] was > 10 µM (inactive) each time.

(Values after ChEMBL document CHEMBL1201862, “PubChem BioAssay data set” (2004).)
